{
  "source": "patent US11306121B2",
  "about": "“Composition for muscle relaxation” (CAREGEN CO., LTD., priority 2018, dated 2022)",
  "key": {"[1]": {"conditions": "1,000 ppm in sterile distilled water, stored at 45° C., maximum observation time of 75 days"}, "[2]": {"conditions": "1,000 ppm in sterile distilled water, warmed at 121° C., maximum warming time of 30 minutes"}},
  "note": "Where two headings read alike, the source gives them in different places. Residues, ends and D or L forms follow the SMILES beside them.",
  "data": [
    {"smiles": "CC[C@H](C)[C@H](NC(=O)[C@H](CC(C)C)NC(=O)[C@H](Cc1ccccc1)NC(=O)[C@@H](N)CCCCN)C(=O)N[C@@H](CCCCN)C(=O)O", "note": "[peptide of the present invention, KFLIK] (H-KFLIK-OH; N-terminus and C-terminus assumed)", "values": [
      {"measurement": "stability of the peptide (HPLC assay)", "setting": "[1]", "result": "maintained"},
      {"measurement": "stability of the peptide (HPLC assay)", "setting": "[2]", "result": "maintained"}
    ]}
  ]
}
